Test results reported in patent US10888547B2, “Amorphous and a crystalline form of genz 112638 hemitartrate as inhibitor of glucosylceramide synthase” (Genzyme Corporation, priority 2009, dated 2021).

Experiments:
[1] = test system: Gaucher disease type 1 (GD1) patients; assay: Phase 2 clinical trial in adults with Gaucher disease type 1; assay type: in vivo, human; settings: 50 or 100 mg bid orally
Description: Patients were to have splenomegaly (volume […]) and either thrombocytopenia (platelets 45,000-100,000/mm^3) or anemia (hemoglobin 8-10 g/dl, female; 8-11 g/dl, male). None received enzyme replacement or substrate reduction therapy in the prior 12 months. The composite primary efficacy endpoint is […] (+0.5 g/dl) or platelet count (+15%) after 52 weeks of treatment. Liver volume, chitotriosidase, glucosylceramide are also assessed. Patients continue to be treated and monitored long-term.

[2] = target: glycogen debranching enzyme (α-1,6-glucosidase) (Homo sapiens, UniProt P35573); assay: Glycogen debranching enzyme cell free assay; assay type: biochemical
Sequence of glycogen debranching enzyme (α-1,6-glucosidase) (P35573 whole entry, species assumed): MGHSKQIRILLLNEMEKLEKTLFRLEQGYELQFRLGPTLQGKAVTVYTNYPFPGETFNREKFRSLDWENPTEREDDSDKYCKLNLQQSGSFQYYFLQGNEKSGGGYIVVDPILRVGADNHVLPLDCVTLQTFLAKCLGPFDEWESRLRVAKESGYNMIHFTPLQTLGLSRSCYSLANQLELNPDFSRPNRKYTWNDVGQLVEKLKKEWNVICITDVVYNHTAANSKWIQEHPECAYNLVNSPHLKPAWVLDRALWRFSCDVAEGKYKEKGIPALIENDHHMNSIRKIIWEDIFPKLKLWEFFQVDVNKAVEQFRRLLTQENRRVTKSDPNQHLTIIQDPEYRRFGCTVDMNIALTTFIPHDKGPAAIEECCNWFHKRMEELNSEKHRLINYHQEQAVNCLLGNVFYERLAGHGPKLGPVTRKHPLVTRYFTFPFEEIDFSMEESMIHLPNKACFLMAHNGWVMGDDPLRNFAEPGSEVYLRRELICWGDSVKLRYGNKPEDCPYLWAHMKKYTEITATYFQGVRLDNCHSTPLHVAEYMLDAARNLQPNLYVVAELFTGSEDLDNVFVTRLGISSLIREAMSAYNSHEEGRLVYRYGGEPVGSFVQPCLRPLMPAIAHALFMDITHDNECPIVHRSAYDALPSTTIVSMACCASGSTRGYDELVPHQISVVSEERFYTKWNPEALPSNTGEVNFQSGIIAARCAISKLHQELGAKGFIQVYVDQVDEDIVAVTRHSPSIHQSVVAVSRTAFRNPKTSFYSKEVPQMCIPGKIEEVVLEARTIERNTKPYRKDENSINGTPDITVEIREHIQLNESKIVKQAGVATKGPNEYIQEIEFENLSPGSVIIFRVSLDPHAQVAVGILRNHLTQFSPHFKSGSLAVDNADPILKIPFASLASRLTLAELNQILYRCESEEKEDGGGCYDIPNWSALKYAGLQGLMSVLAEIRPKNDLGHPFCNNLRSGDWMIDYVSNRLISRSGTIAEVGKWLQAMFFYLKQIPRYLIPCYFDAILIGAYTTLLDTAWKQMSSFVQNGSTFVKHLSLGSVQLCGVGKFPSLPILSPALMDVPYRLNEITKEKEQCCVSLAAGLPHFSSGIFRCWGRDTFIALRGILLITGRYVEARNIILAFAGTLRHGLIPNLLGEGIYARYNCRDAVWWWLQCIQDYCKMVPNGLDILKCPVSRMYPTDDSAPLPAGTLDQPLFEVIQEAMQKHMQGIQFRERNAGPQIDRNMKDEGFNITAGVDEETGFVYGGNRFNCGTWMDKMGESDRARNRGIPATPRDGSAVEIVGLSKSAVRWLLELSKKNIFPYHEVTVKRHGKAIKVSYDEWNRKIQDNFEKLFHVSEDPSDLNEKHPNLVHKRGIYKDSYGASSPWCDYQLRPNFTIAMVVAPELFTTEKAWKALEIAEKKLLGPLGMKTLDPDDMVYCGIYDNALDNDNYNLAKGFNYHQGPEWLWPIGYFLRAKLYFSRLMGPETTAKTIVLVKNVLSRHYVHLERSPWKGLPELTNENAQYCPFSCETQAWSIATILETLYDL
Description: (§1) The specificity of Formula (I) Hemitartrate was evaluated in a series of in vitro cell-based and cell-free assays. The intestinal glycosidase enzymes were assayed in rat tissue homogenates (see U. Andersson, et al., Biochem. Pharm. 59 (2000) 821-829, the entire teachings of which are incorporated herein by reference), and the glycogen debranching enzyme was assayed in a cell free assay as described (see U. Andersson, et al., Biochem. Pharm. 67 (2004) 697-705, the entire teachings of which are incorporated herein by reference).

sucrase = target: T1, sucrase (Rattus norvegicus, UniProt P23739); assay: Intestinal glycosidase assay in rat tissue homogenates; assay type: biochemical
T1 construct: The intestinal glycosidase enzymes were assayed in rat tissue homogenates; from tissue; host or cells: rat intestinal tissue homogenate
T1 sequence (P23739 whole entry): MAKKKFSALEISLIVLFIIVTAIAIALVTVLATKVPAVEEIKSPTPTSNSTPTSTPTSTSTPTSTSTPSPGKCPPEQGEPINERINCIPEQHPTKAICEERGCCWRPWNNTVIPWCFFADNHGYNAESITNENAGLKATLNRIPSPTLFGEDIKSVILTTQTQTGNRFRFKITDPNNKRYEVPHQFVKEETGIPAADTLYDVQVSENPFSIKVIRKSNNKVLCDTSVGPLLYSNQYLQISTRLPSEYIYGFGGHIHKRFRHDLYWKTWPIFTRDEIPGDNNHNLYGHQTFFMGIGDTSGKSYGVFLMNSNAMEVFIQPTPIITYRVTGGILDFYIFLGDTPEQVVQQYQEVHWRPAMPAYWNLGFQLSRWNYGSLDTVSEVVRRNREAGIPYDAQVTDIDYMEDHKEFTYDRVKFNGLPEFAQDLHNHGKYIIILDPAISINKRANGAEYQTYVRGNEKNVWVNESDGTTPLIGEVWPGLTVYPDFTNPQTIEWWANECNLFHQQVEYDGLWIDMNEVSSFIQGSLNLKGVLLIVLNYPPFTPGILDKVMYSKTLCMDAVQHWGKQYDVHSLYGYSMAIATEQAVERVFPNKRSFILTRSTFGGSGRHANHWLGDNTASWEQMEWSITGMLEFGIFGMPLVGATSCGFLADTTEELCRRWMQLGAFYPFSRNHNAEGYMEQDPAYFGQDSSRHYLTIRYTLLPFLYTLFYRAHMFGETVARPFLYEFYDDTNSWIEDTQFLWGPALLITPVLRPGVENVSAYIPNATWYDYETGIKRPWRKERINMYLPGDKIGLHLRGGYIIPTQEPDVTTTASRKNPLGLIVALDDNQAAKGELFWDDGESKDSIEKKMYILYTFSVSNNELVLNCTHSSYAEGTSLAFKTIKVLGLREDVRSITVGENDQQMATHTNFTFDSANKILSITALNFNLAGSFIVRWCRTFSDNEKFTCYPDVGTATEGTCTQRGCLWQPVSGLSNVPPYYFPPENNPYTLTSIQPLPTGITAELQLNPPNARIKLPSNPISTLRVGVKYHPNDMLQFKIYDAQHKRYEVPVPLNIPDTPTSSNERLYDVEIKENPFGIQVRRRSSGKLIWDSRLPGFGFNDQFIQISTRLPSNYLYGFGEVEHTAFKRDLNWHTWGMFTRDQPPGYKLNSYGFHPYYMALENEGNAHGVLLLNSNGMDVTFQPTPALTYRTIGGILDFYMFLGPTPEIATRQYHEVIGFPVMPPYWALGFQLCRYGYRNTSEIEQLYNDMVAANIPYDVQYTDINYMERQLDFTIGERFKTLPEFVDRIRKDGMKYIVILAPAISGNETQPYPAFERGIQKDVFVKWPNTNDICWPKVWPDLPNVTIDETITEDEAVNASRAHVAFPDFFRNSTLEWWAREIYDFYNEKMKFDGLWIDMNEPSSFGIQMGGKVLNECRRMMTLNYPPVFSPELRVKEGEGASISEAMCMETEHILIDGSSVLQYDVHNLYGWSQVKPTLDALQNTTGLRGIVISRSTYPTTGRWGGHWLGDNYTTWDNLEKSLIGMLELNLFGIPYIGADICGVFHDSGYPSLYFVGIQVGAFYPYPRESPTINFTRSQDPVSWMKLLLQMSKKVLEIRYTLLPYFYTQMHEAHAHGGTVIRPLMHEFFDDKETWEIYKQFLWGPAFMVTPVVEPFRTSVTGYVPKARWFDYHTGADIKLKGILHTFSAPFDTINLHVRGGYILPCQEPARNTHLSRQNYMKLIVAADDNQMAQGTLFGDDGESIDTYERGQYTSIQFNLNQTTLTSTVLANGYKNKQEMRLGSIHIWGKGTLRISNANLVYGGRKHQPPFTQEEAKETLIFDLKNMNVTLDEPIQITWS
Description: as §1

lactase = target: T2, lactase (Rattus norvegicus, UniProt Q02401); assay: as above; assay type: biochemical; settings: concentrations up to 2500 μM
T2 construct: The intestinal glycosidase enzymes were assayed in rat tissue homogenates; from tissue; host or cells: rat intestinal tissue homogenate
T2 sequence (Q02401 868-1928): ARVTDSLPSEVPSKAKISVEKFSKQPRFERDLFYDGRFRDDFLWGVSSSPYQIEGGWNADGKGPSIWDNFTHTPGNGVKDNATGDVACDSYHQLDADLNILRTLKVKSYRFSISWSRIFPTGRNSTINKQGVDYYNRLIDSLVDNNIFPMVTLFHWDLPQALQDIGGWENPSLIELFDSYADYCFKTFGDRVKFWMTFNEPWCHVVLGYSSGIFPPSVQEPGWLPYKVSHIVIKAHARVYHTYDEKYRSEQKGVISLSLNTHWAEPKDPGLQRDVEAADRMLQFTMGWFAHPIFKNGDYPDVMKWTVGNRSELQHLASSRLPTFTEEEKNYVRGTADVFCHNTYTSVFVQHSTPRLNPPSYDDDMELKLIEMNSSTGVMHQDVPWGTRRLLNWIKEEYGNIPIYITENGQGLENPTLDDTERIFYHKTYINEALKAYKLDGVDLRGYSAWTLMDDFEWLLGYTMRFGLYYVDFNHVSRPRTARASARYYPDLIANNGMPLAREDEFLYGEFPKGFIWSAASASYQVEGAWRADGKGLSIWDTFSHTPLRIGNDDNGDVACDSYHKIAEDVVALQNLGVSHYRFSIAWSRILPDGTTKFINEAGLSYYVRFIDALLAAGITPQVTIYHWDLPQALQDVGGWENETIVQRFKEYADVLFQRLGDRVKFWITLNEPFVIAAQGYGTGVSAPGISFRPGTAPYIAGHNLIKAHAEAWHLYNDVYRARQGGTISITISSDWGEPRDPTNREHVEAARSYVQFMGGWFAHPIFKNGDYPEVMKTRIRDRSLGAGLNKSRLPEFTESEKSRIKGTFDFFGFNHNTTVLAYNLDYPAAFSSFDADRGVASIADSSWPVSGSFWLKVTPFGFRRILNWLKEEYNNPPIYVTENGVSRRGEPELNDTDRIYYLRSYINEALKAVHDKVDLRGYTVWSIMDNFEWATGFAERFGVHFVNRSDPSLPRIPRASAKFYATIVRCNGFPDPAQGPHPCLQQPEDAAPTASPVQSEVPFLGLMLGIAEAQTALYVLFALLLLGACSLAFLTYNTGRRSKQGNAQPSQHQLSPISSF
Description: as §1

maltase = assay: as above; assay type: biochemical
Description: as §1

[3] = both, human, in vivo
Text: This was an open-label, fixed-sequence study in 36 healthy subjects (17 males and 19 females).

[4] = target: T3, glucosylceramide synthase (Homo sapiens, UniProt Q16739); assay: Glucosylceramide synthase inhibition in microsomes from human melanoma A375 cells; assay type: biochemical
T3 construct: microsomes were prepared from human melanoma A375 cells by sonication and centrifugation; endogenous in cells; host or cells: human melanoma A375 cells (microsomes)
T3 sequence (Q16739 1-394): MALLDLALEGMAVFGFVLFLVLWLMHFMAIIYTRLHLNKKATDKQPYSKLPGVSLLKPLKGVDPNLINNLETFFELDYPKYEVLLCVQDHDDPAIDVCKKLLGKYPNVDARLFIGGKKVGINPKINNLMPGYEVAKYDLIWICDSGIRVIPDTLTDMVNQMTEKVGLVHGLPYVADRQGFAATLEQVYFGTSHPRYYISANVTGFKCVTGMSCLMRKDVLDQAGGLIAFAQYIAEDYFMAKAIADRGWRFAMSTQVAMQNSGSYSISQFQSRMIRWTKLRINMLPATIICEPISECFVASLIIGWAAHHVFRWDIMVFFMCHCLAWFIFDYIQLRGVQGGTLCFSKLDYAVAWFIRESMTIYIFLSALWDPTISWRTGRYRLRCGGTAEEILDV
Description: An alternative assay for activity measured inhibition of glucosylceramide synthase in human cell derived microsomes. In this assay, microsomes were prepared from human melanoma A375 cells by sonication and centrifugation. […] Following the incubation, fluorescently labeled glucosylceramide and unreacted ceramide were separated and quantitated by reverse-phase HPLC and fluorescence detection.

Aqueous solubility = assay type: physicochemical; settings: in water

CCCCCCCC(=O)N[C@H](CN1CCCC1)[C@H](O)c1ccc2c(c1)OCCO2 [Formula (I) Hemitartrate]
tolerability and safety profile [1]: well tolerated | composite primary endpoint met (hemoglobin +0.5 g/dl or platelet count +15%) ([1]; 52 weeks): 19 of the 20 | mean (SD) change from baseline in chitotriosidase ([1]; Week 52): -49.9% | mean (SD) change from baseline in liver volume (multiples of normal) ([1]; Week 52): -15.8% | mean (SD) change from baseline in platelet count ([1]; Week 52): +43.6% (137.59%) | mean (SD) change from baseline in spleen volume (multiples of normal) ([1]; Week 52): -40.2% | related adverse events ([1]; all mild and transient): Seven related adverse events in 6 patients | time after which plasma glucosylceramide levels normalized ([1]; all patients): 4 weeks | inhibition of cytosolic debranching enzyme (α-1,6-glucosidase) ([2]; concentrations up to 2500 μM): No detectable inhibition | IC50 ([2]; read-out: Enzyme specificities, IC50: Glycogen debranching enzyme): > 2500 µM | inhibition of sucrase (sucrase; concentrations up to 2500 μM): No detectable inhibition | Ki (sucrase; read-out: Enzyme specificities, Ki: Sucrase inhibition): > 10 µM | inhibition of lactase (lactase): No detectable inhibition | inhibition of maltase (maltase; concentrations up to 2500 μM): No detectable inhibition | Ki (maltase; read-out: Enzyme specificities, Ki: Maltase inhibition): > 10 µM | accumulation in AUC, repeated versus single dose administration [3]: 2 fold | accumulation in Cmax, repeated versus single dose administration [3]: 2 fold | increase in AUC with concomitant paroxetine versus multiple-dose alone [3]: 9 fold | increase in Cmax with concomitant paroxetine versus multiple-dose alone [3]: 7 fold | differential in concentration required to inhibit glucosylceramide synthase compared to any of the other enzymes tested [4]: approximately 40,000 | Aqueous solubility (Aqueous solubility): >216 mg/mL | Aqueous solubility (Aqueous solubility; listed as Formula I Hemitartrate): over 300 mg/mL
